Measurements: the supplement of paper PMC10307832

Assays:
Test in all cases: relative viability (nuclei count vs DMSO), 5 days (fraction); higher = more cells survive
[1] = compound: Nc1ncn([C@H]2C[C@H](O)[C@@H](CO)O2)c(=O)n1 [Decitabine] + Cc1cc(Nc2cc(N3CCN(C)CC3)nc(Sc3ccc(NC(=O)C4CC4)cc3)n2)n[nH]1 [Tozasertib] (partner 0.1 µM)
Summary of the method: (§1)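 Relative viability was taken as the ratio of nuclei in treated wells to nuclei in vehicle wells. Lung cancer cell lines in 1536-well plates received compounds by pin tool one day after seeding, either one drug alone or a fixed anchor-drug dose plus five library-drug doses (not always all listed) in √10 steps. Nuclei were counted on 4× images after 5 days of treatment, and values are medians of duplicate plates.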

[2] = compound: O=C(C[C@H]1NCCC[C@@H]1O)Cn1cnc2cc(Br)c(Cl)cc2c1=O (racemic) [Halofuginone] + CC(=O)Nc1cccc(-n2c(=O)n(C3CC3)c(=O)c3c(Nc4ccc(I)cc4F)n(C)c(=O)c(C)c32)c1 [Trametinib] (partner 0.02 µM)
Summary of the method: as §1

[3] = compound: O=C(C[C@H]1NCCC[C@@H]1O)Cn1cnc2cc(Br)c(Cl)cc2c1=O (racemic) [Halofuginone] + CC1(C)CCC(c2ccc(Cl)cc2)=C(CN2CCN(c3ccc(C(=O)NS(=O)(=O)c4ccc(N[C@H](CCN5CCOCC5)CSc5ccccc5)c(S(=O)(=O)C(F)(F)F)c4)cc3)CC2)C1 [Navitoclax] (partner 0.5 µM)
Summary of the method: as §1

[4] = compound: O=C(C[C@H]1NCCC[C@@H]1O)Cn1cnc2cc(Br)c(Cl)cc2c1=O (racemic) [Halofuginone] + Cc1nc(NC(=O)N2CCC[C@H]2C(N)=O)sc1-c1ccnc(C(C)(C)C(F)(F)F)c1 [Alpelisib] (partner 2 µM)
Summary of the method: as §1

Cell Line	relative viability ([1]; first compound 0.04 µM)	relative viability ([1]; first compound 0.1265 µM)	relative viability ([1]; first compound 0.4 µM)	relative viability ([1]; first compound 1.265 µM)	relative viability ([1]; first compound 4 µM)	relative viability ([2]; first compound 0.001 µM)	relative viability ([2]; first compound 0.003162 µM)	relative viability ([2]; first compound 0.01 µM)	relative viability ([2]; first compound 0.03162 µM)	relative viability ([2]; first compound 0.1 µM)	relative viability ([3]; first compound 0.001 µM)	relative viability ([3]; first compound 0.003162 µM)	relative viability ([3]; first compound 0.01 µM)	relative viability ([3]; first compound 0.03162 µM)	relative viability ([3]; first compound 0.1 µM)	relative viability ([4]; first compound 0.001 µM)	relative viability ([4]; first compound 0.003162 µM)	relative viability ([4]; first compound 0.01 µM)	relative viability ([4]; first compound 0.03162 µM)	relative viability ([4]; first compound 0.1 µM)
NCI-H23	0.256	0.199	0.152	0.195	0.172	0.413	0.407	0.392	0.402	0.217	0.893	0.966	0.795	0.798	0.377	0.548	0.725	0.643	0.814	0.224
NCI-H1355	0.315	0.334	0.263	0.224	0.224	0.481	0.429	0.4	0.415	0.4	0.929	0.949	0.902	1.08	0.715	0.811	0.781	0.894	0.79	0.743
COR-L23	0.134	0.158	0.158	0.123	0.128	0.681	0.641	0.592	0.598	0.0948	1.03	1.1	1.03	0.976	0.126	0.808	0.823	0.754	0.635	0.118
NCI-H2023	0.218	0.226	0.157	0.0961	0.122	0.625	0.482	0.558	0.202	0.0677	1.02	0.986	0.926	0.577	0.15	0.645	0.624	0.519	0.281	0.147
A-427	0.195	0.136	0.118	0.123	0.135	0.823	0.787	0.742	0.714	0.634	1.08	0.984	0.903	0.898	0.946	1.07	1.14	1.05	0.978	0.94
NCI-H1793	0.288	0.335	0.247	0.226	0.207	0.483	0.524	0.363	0.503	0.327	0.409	0.367	0.406	0.396	0.195	0.687	0.666	0.623	0.722	0.396
NCI-H596	0.733	0.87		0.526	0.466	0.889	0.732	0.811	0.898	0.542	0.911	0.912	0.997	1	0.606	0.478	0.467	0.453	0.544	0.465
LU99A	0.32	0.255	0.291	0.252	0.219	0.554	0.598	0.545	0.589	0.536	0.794	0.73	0.763	0.706	0.665	0.553	0.488	0.538	0.475	0.326
NCI-H2009	0.628	0.451	0.399	0.312	0.252	0.345	0.343	0.295	0.234	0.11	1.22	1.13	1.09	1.02	0.67	1.23	1.2	1.12	0.969	0.393
